Results on 13 molecules are retold here after US20010051631A1, “Tricyclic compounds, their production and use” (priority 1994, published 2001).

Data set [1] deals with spontaneously hypertensive rats (SHRs). As to the kind of experiment: Antihypertensive action in spontaneously hypertensive rats (SHRs). It is filed as in vivo, rat. As to conditions: SHR, oral. The procedure: Method: Male SHR at ages ranging from 20 to 24 weeks were anesthetized with pentobarbital.sodium (50 mg/kg, i.p.) and, from the femoral artery of each animal, a polyethylene tube was inserted. The polyethylene tube was connected to a pressure transducer and blood pressure after oral administration of drugs was recorded continuously under non-anesthesia. The animals, after the operation, were allowed to freely access to drinking water and eating, until administration of the drugs. The compounds were all orally administered as a suspension in gum arabic (2 ml/kg).

The test system of a further data set is hamsters. The experiment in a line: Cholesterol lowering effects in hamsters. The class given is in vivo, Syrian hamsters. The procedure: Method: Syrian hamsters of 10 weeks old were stabilized with common feed for two weeks. The animals were grouped based on the total cholesterol in blood. The vehicle (water) or drug was orally administered in a volume of 2 ml/kg for two weeks. During the period of the administration, blood was collected from retinal vessels with passage of time and the total cholesterol and triglyceride in blood were determined. On the other hand, blood was collected from abdominal aorta on the second week after the consecutive administration of the test compounds to determine the total cholesterol, triglyceride and HDL (high density lipid)-cholesterol in blood. Cholesterol C-test, triglyceride G-test and HDL-cholesterol E test (all manufactured by Wako Pure Chemical Industries, Ltd.) were used for the determination of these parameters, respectively.

Another data set deals with PDGF-induced contraction. As to the kind of experiment: Inhibitory effects on the contraction due to PDGF (isolated thoracic aorta strips). Details: species or system stroke prone spontaneously hypertensive rats. As to conditions: 1.7 nM PDGF-AB, drug added 30 minutes before. The procedure: Method: The thoracic aorta of stroke prone spontaneously hypertensive rats at ages ranging from 16 to 36 weeks were isolated, and strip (2 mm in width, 2 cm in length) were prepared from the aorta. Each strip was mounted in 10 ml of an organ bath, which was loaded at 2 g and allowed to stabilized for 2 to 3 hours. As the nutrient, a Krebs-Henseleit solution, bubbled with a mixture gas (95% O2, 5% CO2), was used. At the time when the contraction response against 60 mM KCl becomes constant, each strip was applied by 1.7 nM of PDGF-AB (Cosmobio Inc.) for contraction. Observation was continued until the contraction become maximum and stable (30 to 40 minutes after application of PDGF-AB). Then, the strips were washed, and, in about one hour later (after the tone of the vaso-contraction was recovered to the original level), 10 μl of the drug (DMSO solution) was added. Thirty minutes after drug, 1.7 nM of PDGF-AB was added again and subjected to observation until the contraction became maximum. The PDGF-AB-induced contraction was isometrically recorded on a polygraph (Nihon Denki San-ei). From the contractile response of the strips to PDGF-AB in the absence or presence of drugs, % inhibition of each drug was calculated. IC50 value for the inhibitory effects was calculated in accordance with the Filler's theorem using the least squares method.

The test system of another data set is 5/6 nephrectomized rats. As to the kind of experiment: Antiproteinuric effect in 5/6 nephrectomized rats. It is filed as in vivo, Sprague Dawley rats. The procedure: Method: Male Sprague Dawley rats of five-week old (Japan Clea) were anesthetized with pentobarbital.sodium (50 mg/kg, i.p.), and the right kidney was excised by dorsal incision, and its two-thirds were cut. Two weeks later, the whole of left kidney was removed. In the Sham group, only the second operation was performed. In two weeks after the second operation, urine was collected for 24 hours under drinking water ad libitum. Urinary albumin and total protein were quantitatively determined by the use of A/G B-test (Wako). On the following day of collecting urine, the blood pressure was measured by the tail cuff method. Test animals showing more proteinuria than that of Sham group were selected. Based on the amount of the proteinuria and the blood pressure level, the animals were grouped so that, the average and distribution of urinary protein and blood pressure same in each group. The drug was suspended in gumarabic/water or dissolved in water, and orally administered once a day for 6-8 weeks in a volume of 2 ml/kg. The administration was consecutively performed, and, at 2, 4, 6 and 8th weeks of treatment, urine was collected and blood pressure was measured. The vehicle group was orally administered with only water at a dose of 2 ml/kg.

Setting [2] is: 3 mg/kg oral once a day, 0 weeks.
Where [3] appears, read: 3 mg/kg oral once a day, 2 weeks.
Where [4] appears, read: 3 mg/kg oral once a day, 4 weeks.
The mark [5] stands for this setting: 3 mg/kg oral once a day, 6 weeks.
Where [6] appears, read: 3 mg/kg oral once a day, 8 weeks.
Setting [7] is: 10 mg/kg oral once a day, 0 weeks.
[8] abbreviates: 10 mg/kg oral once a day, 2 weeks.
Setting [9] is: 10 mg/kg oral once a day, 4 weeks.
Where [10] appears, read: 10 mg/kg oral once a day, 6 weeks.
The mark [11] stands for this setting: 10 mg/kg oral once a day, 8 weeks.

In the case of “1,2-Dihydro-3-methyl-1-[3,3-dimethyl-5-(trifluoromethanesulfonamido)pentan-1-yl]-1,4,7b-triazacyclopent[cd]inden-2-one.hydrochloride [Example 40]”, the blood-pressure change in data set [1] (30 mg/kg, after 7 hrs.) was −20 [after 7 hrs.] mmHg.
On to “1,2-Dihydro-3-methyl-1-[4-(methoxycarbonylamino)butan-1-yl]-1,4,7b-triazacyclopento[cd]inden-2-one.hydrochloride [Example 37]”, for which the blood-pressure change in data set [1] (30 mg/kg, after 5 hrs.) is −14 [after 5 hrs.] mmHg.
With “1,2-Dihydro-3-methyl-1-[4-[(2,2,2-trifluoro)ethanesulfonamido]butan-1-yl]-1,4,7b-triazacyclopent[cd]inden-2-one.hydrochloride [Example 38]”, the blood-pressure change in data set [1] (30 mg/kg, after 4 hrs.) is −19 [after 4 hrs.] mmHg.
For the molecule “1,2-Dihydro-3-methyl-1-[6-(trifluoromethanesulfon-amido)hexan-1-yl)-1,4,7b-triazacyclopent[cd]inden-2-one.hydrochloride [Example 28]”, the blood-pressure change in data set [1] (30 mg/kg, after 3 hrs.) was −13 [after 3 hrs.] mmHg. Besides, in the data set on hamsters (30 mg/kg oral for two weeks), the “TC (total cholesterol in blood), % of Vehicle” value is 65.1 % of Vehicle and the “TC-HDL ([total cholesterol value]-[HDL-cholesterol value]), % of Vehicle” value (from here on “TC-HDL … % of Vehicle”) was 61.6 % of Vehicle.
By IC50 is commonly meant the concentration that gives 50% inhibition. A lower IC50 goes with greater potency in that assay. In the data set with PDGF-induced contraction, `Cl.Cl.O=S(=O)(NCCCCN1Cc2cccc3ncc(n23)C1)C(F)(F)F` [Example 1, 4,5-Dihydro-4-[4-(trifluoromethanesulfonamido)butan-1-yl]-3H-1,4,8b-triazaacenaphthylene.dihydrochloride] displayed an IC50 of 2130 nM. Moreover, the blood-pressure change in data set [1] (10 mg/kg, after 5 hrs.) was −21 [after 5 hrs.] mmHg. Further, the Urinary albumin excretion came out at 11.2 mg/day in the data set on 5/6 nephrectomized rats (setting [2]); 16.9 mg/day in the data set on 5/6 nephrectomized rats (setting [3]); 18.4 mg/day in the data set with 5/6 nephrectomized rats (setting [4]); 13.0 mg/day in the data set with 5/6 nephrectomized rats (setting [5]); 25.1 mg/day with 5/6 nephrectomized rats (setting [6]). Moreover, the Urinary protein excretion is recorded as 114.5 mg/day with 5/6 nephrectomized rats (setting [2]); 117.0 mg/day with 5/6 nephrectomized rats (setting [3]); 98.2 mg/day in the data set on 5/6 nephrectomized rats (setting [4]); 156.3 mg/day with 5/6 nephrectomized rats (setting [5]); 102.8 mg/day with 5/6 nephrectomized rats (setting [6]). For the same molecule, the “TC (total cholesterol in blood), % of Vehicle” value with hamsters (30 mg/kg oral for two weeks) was 64.1 % of Vehicle. In the data set with hamsters (30 mg/kg oral for two weeks), the “TC-HDL … % of Vehicle” value is 68.9 % of Vehicle.
In turn, `Cc1nc2cccc3n2c1CN(CCCCNS(=O)(=O)C(F)(F)F)C3.Cl.Cl` [Example 3, 4,5-Dihydro-2-methyl-4-[4-(trifluoromethanesulfonamido)butan-1-yl]-3H-1,4,8b-triazaacenaphthylene.dihydrochloride] registered an IC50 in the data set on PDGF-induced contraction of 290 nM. In addition, in the data set with hamsters (10 mg/kg oral for two weeks), the “TC (total cholesterol in blood), % of Vehicle” value was 82.2 % of Vehicle and the “TC-HDL … % of Vehicle” value is on record as 79.0 % of Vehicle.
In the data set on PDGF-induced contraction, `Cl.O=C1c2cnc3cccc(n23)CN1CCCCNS(=O)(=O)C(F)(F)F` [Example 6, 4,5-Dihydro-4-[4-(trifluoromethanesulfonamido)butan-1-yl]-3H-1,4,8b-triazaacenaphthylen-3-one.hydrochloride] came in with an IC50 of 1270 nM. Further, in data set [1] (10 mg/kg, after 4 hrs.), the blood-pressure change is −19 [after 4 hrs.] mmHg. Also, the Urinary albumin excretion with 5/6 nephrectomized rats (setting [7]) is 6.8 mg/day; with 5/6 nephrectomized rats (setting [8]) it was 13.5 mg/day; in the data set with 5/6 nephrectomized rats (setting [9]), 17.2 mg/day; with 5/6 nephrectomized rats (setting [10]), 13.1 mg/day; in the data set with 5/6 nephrectomized rats (setting [11]), 24.8 mg/day. Moreover, the Urinary protein excretion in the data set on 5/6 nephrectomized rats (setting [7]) was determined as 114.1 mg/day; with 5/6 nephrectomized rats (setting [8]), 103.0 mg/day; with 5/6 nephrectomized rats (setting [9]), 93.9 mg/day; in the data set on 5/6 nephrectomized rats (setting [10]), 167.2 mg/day; in the data set on 5/6 nephrectomized rats (setting [11]), 117.3 mg/day. Besides, the “TC (total cholesterol in blood), % of Vehicle” value with hamsters (10 mg/kg oral for two weeks) is on record as 89.5 % of Vehicle. Further, in the data set on hamsters (10 mg/kg oral for two weeks), the “TC-HDL … % of Vehicle” value is listed as 84.6 % of Vehicle.
For the molecule `Cl.O=C1c2cnc3cccc(n23)CN1CCCCCNS(=O)(=O)C(F)(F)F` [Example 8, 4,5-Dihydro-4-[5-(trifluoromethanesulfonamido)pentan-1-yl]-3H-1,4,8b-triazaacenaphthylen-3-one.hydrochloride], the half-inhibitory concentration (IC50) in the data set on PDGF-induced contraction came to 310 nM. In addition, in the data set with hamsters (10 mg/kg oral for two weeks), the “TC (total cholesterol in blood), % of Vehicle” value is recorded as 81.5 % of Vehicle and the “TC-HDL … % of Vehicle” value is 77.1 % of Vehicle.
For the molecule `Cl.O=c1c2cccc3ncc(c(=O)n1CCCCNS(=O)(=O)C(F)(F)F)n32` [Example 11, 4,5-Dihydro-4-[4-(trifluoromethanesulfonamido)butan-1-yl]-3H-1,4,8b-triazaacenaphthylene-3,5-dione.hydrochloride], in data set [1] (30 mg/kg, after 7 hrs.), the blood-pressure change was −31 [after 7 hrs.] mmHg. For the same molecule, the Urinary albumin excretion with 5/6 nephrectomized rats (setting [7]) is on record as 10.2 mg/day; in the data set on 5/6 nephrectomized rats (setting [8]) it was 19.8 mg/day; in the data set with 5/6 nephrectomized rats (setting [9]), 30.3 mg/day; with 5/6 nephrectomized rats (setting [10]), 26.0 mg/day; in the data set on 5/6 nephrectomized rats (setting [11]) it was 38.3 mg/day. Further, the Urinary protein excretion in the data set on 5/6 nephrectomized rats (setting [7]) amounted to 115.1 mg/day; in the data set on 5/6 nephrectomized rats (setting [8]) it was 69.1 mg/day; in the data set with 5/6 nephrectomized rats (setting [9]) it was 62.5 mg/day; in the data set on 5/6 nephrectomized rats (setting [10]) it was 170.3 mg/day; in the data set on 5/6 nephrectomized rats (setting [11]) it was 125.4 mg/day.
As usually defined, the melting point is the temperature of the solid-liquid transition. Take `CC(C)(C)OC(=O)NCCCCn1c(=O)c2cccc3ncc(c1=O)n32` [Example 17, 4,5-Dihydro-4-[4-(tert-butoxycarbonylamino)butan-1-yl]-3H-1,4,8b-triazaacenaphthylene-3,5-dione]: the melting point was 118 to 119 °C.
`Cc1ncc2ccc3n(CCCCCNS(=O)(=O)C(F)(F)F)c(=O)c1n23.Cl` [Example 26] displayed an IC50 in the data set on PDGF-induced contraction of 370 nM. Further, in data set [1] (10 mg/kg, after 7 hrs.), the blood-pressure change is −22 [after 7 hrs.] mmHg. Further, in the data set with hamsters (30 mg/kg oral for two weeks), the “TC (total cholesterol in blood), % of Vehicle” value was 74.5 % of Vehicle and the “TC-HDL … % of Vehicle” value is given as 72.1 % of Vehicle.
For the molecule `Cc1ncc2ccc3n(CCCCCNS(=O)(=O)CC(F)(F)F)c(=O)c1n23.Cl` [Example 27, 1,2-Dihydro-3-methyl-1-[5-[(2,2,2-trifluoro)-ethanesulfonamido]pentan-1-yl]-1,4,7b-triazacyclopent[cd]inden-2-one.hydrochloride], the blood-pressure change in data set [1] (30 mg/kg, after 7 hrs.) is −17 [after 7 hrs.] mmHg.
On to `CCS(=O)(=O)NCCCCn1c(=O)c2c(C)ncc3ccc1n32.Cl` [Example 35, 1,2-Dihydro-3-methyl-1-[4-(ethanesulfonamido)butan-1-yl]-1,4,7b-triazacyclopent[cd]inden-2-one.hydrochloride], for which, in data set [1] (30 mg/kg, after 2 hrs.), the blood-pressure change was −14 [after 2 hrs.] mmHg.
